From the CheMixHub ionic liquid set

Experiment: xn = mol fraction of the nth substance listed
Conditions: 100 kPa

CCCCCCCC[n+]1ccccc1.[Br-] + CC(C)[C@H](N)C(=O)O + O
Conditions	electrical conductivity [S/m]
288.15 K, x2 = 0.0008935, x1 = 0.007418	1.31
288.15 K, x2 = 0.0008938, x1 = 0.007086	1.29
288.15 K, x2 = 0.0008942, x1 = 0.006704	1.26
288.15 K, x2 = 0.0008945, x1 = 0.006295	1.23
288.15 K, x2 = 0.0008949, x1 = 0.005851	1.19
288.15 K, x2 = 0.0008954, x1 = 0.005368	1.14
288.15 K, x2 = 0.0008958, x1 = 0.004839	1.08
288.15 K, x2 = 0.0008964, x1 = 0.004257	1.01
288.15 K, x2 = 0.0008969, x1 = 0.003625	0.906
288.15 K, x2 = 0.0008976, x1 = 0.002914	0.777
288.15 K, x2 = 0.0008982, x1 = 0.002179	0.624
288.15 K, x2 = 0.0008986, x1 = 0.001732	0.519
288.15 K, x2 = 0.0008991, x1 = 0.001237	0.396
288.15 K, x2 = 0.0008995, x1 = 0.0007528	0.27
288.15 K, x2 = 0.001786, x1 = 0.006884	1.26
288.15 K, x2 = 0.001787, x1 = 0.006555	1.23
288.15 K, x2 = 0.001788, x1 = 0.005847	1.16
288.15 K, x2 = 0.001788, x1 = 0.006214	1.19
288.15 K, x2 = 0.001789, x1 = 0.005457	1.12
288.15 K, x2 = 0.00179, x1 = 0.005019	1.08
288.15 K, x2 = 0.001791, x1 = 0.004547	1.02
288.15 K, x2 = 0.001792, x1 = 0.00402	0.951
288.15 K, x2 = 0.001793, x1 = 0.003446	0.852
288.15 K, x2 = 0.001794, x1 = 0.002816	0.736
288.15 K, x2 = 0.001795, x1 = 0.002155	0.601
288.15 K, x2 = 0.001796, x1 = 0.001258	0.39
288.15 K, x2 = 0.001796, x1 = 0.001677	0.494
288.15 K, x2 = 0.001797, x1 = 0.000791	0.274
293.15 K, x2 = 0.0008935, x1 = 0.007404	1.5
293.15 K, x2 = 0.0008938, x1 = 0.007072	1.47
293.15 K, x2 = 0.0008942, x1 = 0.00669	1.43
293.15 K, x2 = 0.0008945, x1 = 0.006282	1.39
293.15 K, x2 = 0.0008949, x1 = 0.005839	1.34
293.15 K, x2 = 0.0008954, x1 = 0.005359	1.29
293.15 K, x2 = 0.0008958, x1 = 0.00483	1.23
293.15 K, x2 = 0.0008964, x1 = 0.004248	1.15
293.15 K, x2 = 0.0008969, x1 = 0.003618	1.03
293.15 K, x2 = 0.0008976, x1 = 0.002909	0.878
293.15 K, x2 = 0.0008982, x1 = 0.002176	0.703
293.15 K, x2 = 0.0008986, x1 = 0.00173	0.585
293.15 K, x2 = 0.0008991, x1 = 0.001235	0.446
293.15 K, x2 = 0.0008995, x1 = 0.0007528	0.302
293.15 K, x2 = 0.001786, x1 = 0.006871	1.44
293.15 K, x2 = 0.001787, x1 = 0.006543	1.4
293.15 K, x2 = 0.001788, x1 = 0.005835	1.32
293.15 K, x2 = 0.001788, x1 = 0.006203	1.36
293.15 K, x2 = 0.001789, x1 = 0.005446	1.28
293.15 K, x2 = 0.00179, x1 = 0.00501	1.23
293.15 K, x2 = 0.001791, x1 = 0.004538	1.16
293.15 K, x2 = 0.001792, x1 = 0.004013	1.08
293.15 K, x2 = 0.001793, x1 = 0.003439	0.962
293.15 K, x2 = 0.001794, x1 = 0.002811	0.835
293.15 K, x2 = 0.001795, x1 = 0.002152	0.681
293.15 K, x2 = 0.001796, x1 = 0.001254	0.441
293.15 K, x2 = 0.001796, x1 = 0.001673	0.556
293.15 K, x2 = 0.001797, x1 = 0.0007892	0.308
298.15 K, x2 = 0.0008935, x1 = 0.007393	1.7
298.15 K, x2 = 0.0008938, x1 = 0.007063	1.66
298.15 K, x2 = 0.0008942, x1 = 0.006681	1.62
298.15 K, x2 = 0.0008945, x1 = 0.006273	1.57
298.15 K, x2 = 0.0008949, x1 = 0.005831	1.52
298.15 K, x2 = 0.0008954, x1 = 0.005351	1.46
298.15 K, x2 = 0.0008959, x1 = 0.004824	1.38
298.15 K, x2 = 0.0008964, x1 = 0.004243	1.28
298.15 K, x2 = 0.0008969, x1 = 0.003614	1.15
298.15 K, x2 = 0.0008976, x1 = 0.002905	0.986
298.15 K, x2 = 0.0008982, x1 = 0.002174	0.784
298.15 K, x2 = 0.0008986, x1 = 0.001726	0.653
298.15 K, x2 = 0.0008991, x1 = 0.001234	0.498
298.15 K, x2 = 0.0008995, x1 = 0.000751	0.336
298.15 K, x2 = 0.001786, x1 = 0.006862	1.62
298.15 K, x2 = 0.001787, x1 = 0.006534	1.58
298.15 K, x2 = 0.001788, x1 = 0.005828	1.49
298.15 K, x2 = 0.001788, x1 = 0.006196	1.54
298.15 K, x2 = 0.001789, x1 = 0.005439	1.44
298.15 K, x2 = 0.00179, x1 = 0.005003	1.38
298.15 K, x2 = 0.001791, x1 = 0.004533	1.31
298.15 K, x2 = 0.001792, x1 = 0.004009	1.21
298.15 K, x2 = 0.001793, x1 = 0.003435	1.08
298.15 K, x2 = 0.001794, x1 = 0.002807	0.937
298.15 K, x2 = 0.001795, x1 = 0.002148	0.761
298.15 K, x2 = 0.001796, x1 = 0.001254	0.492
298.15 K, x2 = 0.001796, x1 = 0.001671	0.623
298.15 K, x2 = 0.001797, x1 = 0.0007892	0.342
303.15 K, x2 = 0.0008935, x1 = 0.007383	1.93
303.15 K, x2 = 0.0008938, x1 = 0.007052	1.88
303.15 K, x2 = 0.0008942, x1 = 0.006672	1.82
303.15 K, x2 = 0.0008946, x1 = 0.006264	1.77
303.15 K, x2 = 0.000895, x1 = 0.005822	1.7
303.15 K, x2 = 0.0008954, x1 = 0.005343	1.63
303.15 K, x2 = 0.0008959, x1 = 0.004817	1.54
303.15 K, x2 = 0.0008964, x1 = 0.004238	1.43
303.15 K, x2 = 0.0008969, x1 = 0.003609	1.28
303.15 K, x2 = 0.0008976, x1 = 0.002902	1.1
303.15 K, x2 = 0.0008982, x1 = 0.00217	0.864
303.15 K, x2 = 0.0008986, x1 = 0.001725	0.717
303.15 K, x2 = 0.0008991, x1 = 0.001232	0.553
303.15 K, x2 = 0.0008995, x1 = 0.000751	0.372
303.15 K, x2 = 0.001786, x1 = 0.006852	1.81
303.15 K, x2 = 0.001787, x1 = 0.006525	1.77
303.15 K, x2 = 0.001788, x1 = 0.00582	1.67
303.15 K, x2 = 0.001788, x1 = 0.006185	1.72
303.15 K, x2 = 0.001789, x1 = 0.005432	1.61
303.15 K, x2 = 0.00179, x1 = 0.004996	1.54
303.15 K, x2 = 0.001791, x1 = 0.004527	1.46
303.15 K, x2 = 0.001792, x1 = 0.004004	1.35
303.15 K, x2 = 0.001793, x1 = 0.003429	1.21
303.15 K, x2 = 0.001794, x1 = 0.002804	1.04
303.15 K, x2 = 0.001795, x1 = 0.002146	0.845
303.15 K, x2 = 0.001796, x1 = 0.00167	0.691
303.15 K, x2 = 0.001797, x1 = 0.0007874	0.379
303.15 K, x2 = 0.001797, x1 = 0.001252	0.546
308.15 K, x2 = 0.0008936, x1 = 0.00737	2.19
308.15 K, x2 = 0.0008938, x1 = 0.00704	2.13
308.15 K, x2 = 0.0008942, x1 = 0.006659	2.06
308.15 K, x2 = 0.0008946, x1 = 0.006254	1.99
308.15 K, x2 = 0.000895, x1 = 0.005812	1.92
308.15 K, x2 = 0.0008954, x1 = 0.005334	1.81
308.15 K, x2 = 0.0008959, x1 = 0.004808	1.71
308.15 K, x2 = 0.0008964, x1 = 0.00423	1.57
308.15 K, x2 = 0.0008969, x1 = 0.003602	1.42
308.15 K, x2 = 0.0008976, x1 = 0.002896	1.19
308.15 K, x2 = 0.0008982, x1 = 0.002167	0.943
308.15 K, x2 = 0.0008986, x1 = 0.001721	0.784
308.15 K, x2 = 0.0008991, x1 = 0.00123	0.608
308.15 K, x2 = 0.0008995, x1 = 0.0007492	0.414
308.15 K, x2 = 0.001786, x1 = 0.006839	2.07
308.15 K, x2 = 0.001787, x1 = 0.006512	2.02
308.15 K, x2 = 0.001788, x1 = 0.00581	1.87
308.15 K, x2 = 0.001788, x1 = 0.006175	1.95
308.15 K, x2 = 0.001789, x1 = 0.005421	1.79
308.15 K, x2 = 0.00179, x1 = 0.004987	1.71
308.15 K, x2 = 0.001791, x1 = 0.004518	1.62
308.15 K, x2 = 0.001792, x1 = 0.003997	1.48
308.15 K, x2 = 0.001793, x1 = 0.003424	1.34
308.15 K, x2 = 0.001794, x1 = 0.002798	1.14
308.15 K, x2 = 0.001795, x1 = 0.002143	0.914
308.15 K, x2 = 0.001796, x1 = 0.001666	0.743
308.15 K, x2 = 0.001797, x1 = 0.0007874	0.427
308.15 K, x2 = 0.001797, x1 = 0.001249	0.603
